Legend:
CFTR (F508del-NBD1-1S) = CFTR (F508del-NBD1-1S) (Homo sapiens, UniProt P13569, F494N/DEL508-508); design: SPR (Biacore T200) steady-state affinity of correctors to immobilized biotinylated CFTR NBD1; conditions: binder; read-out: ΔF508-NBD1-1S Mean KD
Protocol: (§1) As described in our previous publication ([21]), binding interactions between biotinylated NBD1 constructs (WT-1S-, F508del-1S-, F508del-3S-NBD1; ~30 kDa each) and corrector compounds were examined with a BIACORE T200 system (GE Healthcare Bio-Sciences AB; Control software v2.0 and Evaluation software v1.0). Briefly, neutravidin (2 mg/mL in water, diluted to 50 μg/mL in 10 mM sodium acetate, pH 5.0; Thermo Fisher Scientific) was amine-coupled to S-series CM5 sensors (~12,000 RU per flow cell) at 25°C using filtered (0.2 μm) and degassed HBS-EP buffer (10 mM HEPES, pH 7.4; 150 mM NaCl; 3 mM EDTA; 0.005% [v/v] Tween-20). After subsequent cooling to 4°C (sample chamber and sensor) and equilibration in PBS running buffer (1× PBS pH 7.4 containing 10% [v/v] glycerol, 2 mM MgCl2, 1 mM ATP, 0.05% [v/v] Tween-20), reference (neutravidin only) and active surfaces (100 μg/mL NBD1 constructs in PBS buffer; capture 5000–8000 RU each) were equilibrated in PBS buffer containing 2% (v/v) DMSO at 10 μL/min. The corrector compounds were titrated over reference and NBD1-immobilized surfaces at 25–50 μL/min (1–2 minutes association plus 2–5 minutes dissociation; 2-fold dilution series for all compounds). Between titration series, the surfaces were regenerated at 50 μL/min using two 30-second pulses of solution I (PBS-DMSO buffer containing 1.0 M NaCl and 0.05% [v/v] Empigen [Anatrace]). […]

CFTR (WT-NBD1-1S) = CFTR (WT-NBD1-1S) (Homo sapiens, UniProt P13569, F494N); assay: biochemical; design: SPR (Biacore T200) steady-state affinity of correctors to immobilized biotinylated CFTR NBD1
Sequence of CFTR (WT-NBD1-1S) (P13569 389-678 F494N limits assumed): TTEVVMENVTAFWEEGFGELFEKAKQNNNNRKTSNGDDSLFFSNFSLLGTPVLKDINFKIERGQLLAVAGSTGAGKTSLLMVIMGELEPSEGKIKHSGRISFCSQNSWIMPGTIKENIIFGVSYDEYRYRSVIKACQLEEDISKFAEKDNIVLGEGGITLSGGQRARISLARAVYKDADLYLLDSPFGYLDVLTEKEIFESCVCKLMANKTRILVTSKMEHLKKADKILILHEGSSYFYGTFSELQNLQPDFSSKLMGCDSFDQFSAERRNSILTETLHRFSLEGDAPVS
Protocol: as §1

Sequence of CFTR (F508del-NBD1-1S) (P13569 with tags, fused parts or gaps F494N/DEL508-508 limits assumed): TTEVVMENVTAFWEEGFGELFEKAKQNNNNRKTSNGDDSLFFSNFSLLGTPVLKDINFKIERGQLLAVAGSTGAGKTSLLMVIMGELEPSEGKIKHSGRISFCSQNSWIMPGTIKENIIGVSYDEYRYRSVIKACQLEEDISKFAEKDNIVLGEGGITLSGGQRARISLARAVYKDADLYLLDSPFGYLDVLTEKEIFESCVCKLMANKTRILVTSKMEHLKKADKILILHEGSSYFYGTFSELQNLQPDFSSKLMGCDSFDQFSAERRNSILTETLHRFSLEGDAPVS

SMILES | Kd (CFTR (F508del-NBD1-1S)) [µM] | Kd (CFTR (WT-NBD1-1S)) [µM]
Cc1nn(C)cc1S(=O)(=O)NC(=O)c1ccc(-n2ccc(OCC(C)(C)C(F)(F)F)n2)nc1N1C[C@@H](C)CC1(C)C [compound 20, VX-445] | 82 | 76
CC(C)(CO)c1cc2cc(NC(=O)C3(c4ccc5c(c4)OC(F)(F)O5)CC3)c(F)cc2n1C[C@@H](O)CO [VX-661, tezacaftor] | > 200 | > 200

Reference: paper PMC7526550, “Allosteric folding correction of F508del and rare CFTR mutants by elexacaftor-tezacaftor-ivacaftor (Trikafta) combination” (JCI Insight, 2020)
